Results on three compounds are retold here after patent US5593965A, “Anti-tumor effects of GnRH-III” (Creighton University, priority 1994, dated 1997).

One series has as its system MCF-7 cell line. It is filed as cell-based, human. To be noted: dose range 1-50 μM. The source says:
(§1) Two human breast cancer cell lines were used. They were: (1) the estrogen receptor positive MCF-7 cell line and (2) the estrogen receptor negative MDA-MB-231 cell line. Both cell lines contain GnRH receptors. These cell lines were used to illustrate the anticancer effects of GnRH-III. The cells were maintained in Dulbecco-modified Eagle-minimal essential medium (DMEM, GIBCO) containing 10% fetal calf serum (10% FCS). The clonogenic assay provides information on the cell damaging effects of a substance in a dose-dependent manner. Three hundred cells were transferred into 35 mm Petri dishes in 2.5 ml of medium. On the following day, the cultures were treated with 1, 5, 10, 20, 30 and 50 μM doses of GnRH-III. Colonies which developed from specific cells were stained with crystal violet and counted on days 8 to 12 after treatment. Colony numbers of untreated control cultures were counted for comparison.

The test system of the next series is MDA-MB-231 cell line. It is filed as cell-based, human. To be noted: dose range 1-50 μM.
Excerpt: as §1

Series [1] concerns ovulation in rats. Briefly: In vivo assay of inhibition of ovulation (chemical castration). Set-up: species or system rat. As to the method:
Adult female rates(Wistar-R-Amsterdam), 200-250 grams, housed under controlled lighting (light period 05:00 to 19:00) with free access to pelleted food and tap water were used herein. For the in vivo assay of inhibition of ovulation, aliquots of peptide solutions were injected subcutaneously into female rats at noon on the day of proestrous for single-dose tests and every day at noon for long term tests. Only rats which had previously shown three consecutive regular 4-day cycles, as indicated by vaginal smears test, were used herein. Animals were ovariectomized on the day of the first diestrous after the injection. Oviducts were prepared under stereo-microscope and tested for ova as is well known in the art.

Another series concerns rat pituitary cells. The series is described as follows: Superfused rat pituitary cell system (LH release). It is filed as cell-based. As to the method: The GnRH activity of the peptides were assayed by using the superfused rat pituitary cell system as described by Vigh and Schally, Peptides, 5:241-247, Suppl. 1, (1984) and Csernus and Schally, Neuroendocrine Research Methods, Greenstein, B., ed., Harwood Academic Publishers, London, pp66-102 (1985). Mixed cell populations of four regularly cycling female rats, at random stages of the estrous cycle, were used in each chamber of a superfusion apparatus. The cells were perfused for 12 hours with Medium 199 (Sigma) at a flow rate of 20 ml/hour, prior to administration of the peptides. […] The peptide-containing solutions are prepared from the stock solution immediately before use. At the beginning of each experiment, cells were rechallenged with potassium to check the secretability of Luteinizing Hormone, independent of the participation of specific hormone recptors. Fractions, 1 ml per 3 minutes, were collected and the concentration of Luteinzing Hormone was determined by radioimmunoassay. NIAMD radioimmunoassay kits were used for the Luteinizing Hormone and Follicle Stimulating Hormone assays. The superfusion data was analyzed by the computer program of Csernus and Schally (1985).

The subject of series [2] is human breast cancer cell lines. It is filed as cell-based.
Excerpt: as §1, with “comparison. The antiproliferation assay used herein measures the inhibition of cell proliferation due to drug exposure. Loose subconfluent cultures (6×10^5 -1×10^6 cells) in 100 mm Petri dishes were initiated and treated with 1, 5, 10, 20, 30 and 50 μM doses of GnRH-III on every other day for various periods of time. On day 6, the cell numbers of both control and treated cultures were counted in a Neubauer-type hemocytometer.” for “comparison.”

The subject of series [3] is ovulation in rats. To be noted: cited from earlier work.

Entries after “also recorded” stand apart in the source; their conditions may differ.

Turning to `NCCCC[C@H](NC(=O)[C@H](Cc1c[nH]c2ccccc12)NC(=O)[C@H](CC(=O)O)NC(=O)[C@H](Cc1c[nH]cn1)NC(=O)[C@H](CO)NC(=O)[C@H](Cc1c[nH]c2ccccc12)NC(=O)[C@H](Cc1c[nH]cn1)NC(=O)[C@@H]1CCC(=O)N1)C(=O)N1CCC[C@H]1C(=O)NCC(N)=O` [GnRH-III], the colony formation entry in the series on MCF-7 cell line and in the series on MDA-MB-231 cell line was “inhibited colony formation” in each case. For the same compound, the influence on ovulation entry in the series with ovulation in rats [1] (female rats, subcutaneous, doses of 10^-9 to 10^-7 M) was “no influence on ovulation”. For the same compound, in the series with ovulation in rats [1] (rats), the function of gonads entry is reported as “did not influence the function of gonads; also recorded: does not influence gonadal function”. For the same compound, the histology of ovary result in the series on ovulation in rats [1] (rats, repeated injections) is recorded as “did not change histology of ovary; also recorded: did not change the histological character of ovary”. Also, in the series with rat pituitary cells (10^-6 M), the “LH release at high concentration” value is reported as “did cause LH release”. The “agonist/antagonist character in mammalian pituitary gland” value in the series with rat pituitary cells (doses of 10^-9 to 10^-7 M) is “neither agonist, nor antagonist”. For the same compound, the “decrease in cloning efficiency” value in series [2] (at 30 μM) is 65-80%. For the same compound, in series [2] (in vitro, human breast cancer cell lines), the “anticancer activity compared with other GnRH analogs” value is “surpass that of the well known agonists Buserelin, Decapeptyl and Ovurelin, and to approximate that of the antagonists SB-30 and MI-1544”.
As for “[B-Asp(α-diethylamide^6 ],Gln^8)GnRH [TH-332, reference compound]”, the colony formation result in the series on MCF-7 cell line and in the series with MDA-MB-231 cell line was “did not inhibit colony formation” in each case.
As for “human GnRH: hypothalamic peptide hormone stimulating release of Luteinizing Hormone and Follicle Stimulating Hormone (QHWSYGLRPG; Gonadoliberin-1; UniProt P01148 24-33, looked up) [reference compound]”, in the series with rat pituitary cells (doses 10^-9 -10^-7 M), the “induction of LH release” value is given as “did not induce Luteinizing Hormone (LH)-release” and the “inhibition of LH release induced by native GnRH” value is reported as “neither did it inhibit the LH-release induced by native GnRH”. The “effective doses on ovulation” value in the series on ovulation in rats [3] was 10^-9 to 10^-7 M.
